Measurements: ChEMBL document CHEMBL4602628, “Design, synthesis, and enzymatic characterization of quinazoline-based CYP1A2 inhibitors” (Bioorg Med Chem Lett, 2020)
pIC50: −log10 of the molar value.

Target: T1, Cytochrome P450 1A2 (Homo sapiens, UniProt P05177)
T1 sequence (P05177 whole entry): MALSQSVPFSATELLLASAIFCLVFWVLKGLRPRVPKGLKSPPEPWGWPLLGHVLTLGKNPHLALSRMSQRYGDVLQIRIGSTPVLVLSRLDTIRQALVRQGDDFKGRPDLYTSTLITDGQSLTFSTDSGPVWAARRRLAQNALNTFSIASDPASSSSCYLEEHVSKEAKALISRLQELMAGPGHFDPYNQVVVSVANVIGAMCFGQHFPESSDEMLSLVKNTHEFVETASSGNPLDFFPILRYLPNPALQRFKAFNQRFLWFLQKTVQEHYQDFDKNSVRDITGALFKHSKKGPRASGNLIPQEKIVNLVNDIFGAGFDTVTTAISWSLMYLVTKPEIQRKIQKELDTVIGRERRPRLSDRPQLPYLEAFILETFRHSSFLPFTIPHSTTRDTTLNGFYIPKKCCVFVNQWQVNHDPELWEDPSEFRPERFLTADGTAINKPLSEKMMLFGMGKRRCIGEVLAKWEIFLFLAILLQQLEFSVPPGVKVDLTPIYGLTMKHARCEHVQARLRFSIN
Assay: Inhibition of recombinant human CYP1A2 using luciferin-ME as substrate preincubated for 10 mins followed by NADPH addition and measured after 10 to 30 mins by P450-Glo assay

Row | pIC50 | SMILES
1 | 5.38 | CN(C)c1ccc(-c2ncc3ccccc3n2)cc1
2 | 5.92 | O=[N+]([O-])c1cccc(-c2ncc3ccccc3n2)c1
3 | 6.02 | c1ccc2nc(-c3ccnc4ccccc34)ncc2c1
